Consider one compound from ChEMBL document CHEMBL6182889, “Discovery of the first-in-class DOT1L PROTAC degrader” (Eur J Med Chem, 2025).

Active and inactive are the calls of the source. The calls are words filed in the database; no cut-off is given here.

The target in test [1] is T1, von Hippel-Lindau disease tumor suppressor/Histone-lysine N-methyltransferase, H3 lysine-79 specific (Homo sapiens, UniProt Q8TEK3+P40337). In words: PROTAC activity at VHL/DOT1L in mixed-lineage leukemia rearranged (MLL-r) human THP-1 cells assessed as induction of DOTIL degradation by measuring fold change in DOT1L protein level at 3 uM incubated for 1 hr by western blot analysis relative to control. Format: cell-based. (Immunoblotting shows a protein as a band on a membrane.)

Test [2] addresses T1, von Hippel-Lindau disease tumor suppressor/Histone-lysine N-methyltransferase, H3 lysine-79 specific. Briefly: PROTAC activity at VHL/DOT1L in mixed-lineage leukemia rearranged (MLL-r) human THP-1 cells assessed as induction of DOTIL degradation by measuring fold change in H3K79Me2 level at 3 uM incubated for 24 hrs by western blot analysis relative to control. The test is classed as cell-based.

For test [3] the target is unchanged. In words: PROTAC activity at VHL/DOT1L in mixed-lineage leukemia rearranged (MLL-r) human MV4-11 cells assessed as induction of DOTIL degradation by measuring fold change in H3K79Me2 level at 3 uM incubated for 2 hrs by western blot analysis relative to control. Format: cell-based.
For test [4] the target is unchanged. In words: PROTAC activity at VHL/DOT1L in mixed-lineage leukemia rearranged (MLL-r) human MV4-11 cells assessed as induction of DOTIL degradation by measuring fold change in H3K79Me2 level at 3 uM incubated for 8 hrs by western blot analysis relative to control. The test is classed as cell-based.
Test [5] shares this target. In words: PROTAC activity at VHL/DOT1L in mixed-lineage leukemia rearranged (MLL-r) human MV4-11 cells assessed as induction of DOTIL degradation by measuring fold change in DOT1L protein level at 3 uM incubated for 48 hrs by western blot analysis relative to control. The test is classed as cell-based.
Test [6] has the same target. In words: PROTAC activity at VHL/DOT1L in mixed-lineage leukemia rearranged (MLL-r) human MV4-11 cells assessed as induction of DOTIL degradation by measuring fold change in H3K79Me2 level at 3 uM incubated for 48 hrs by western blot analysis relative to control. The test is classed as cell-based.
For test [7] the target is unchanged. In words: PROTAC activity against VHL/DOT1L in mixed-lineage leukemia rearranged (MLL-r) human THP-1 cells assessed as induction of DOT1L degradation at 3 uM preincubated with proteasome inhibitor, MG-132 for 1 hr followed by incubation with compound for 4 hrs by western blot analysis. The test is classed as cell-based.
The subject of test [8] is MOLM-13. Briefly: Effect on DOT1L mRNA expression in mixed-lineage leukemia rearranged (MLL-r) human MOLM-13 cells at 3 uM incubated for 24 hrs by RT-qPCR analysis. Format: functional, cell-based. A general note: Real-time PCR tracks product formation cycle by cycle.
For test [9], the target named is T2, Histone-lysine N-methyltransferase EHMT1 (Homo sapiens) (UniProt Q9H9B1).
T2 sequence (whole entry): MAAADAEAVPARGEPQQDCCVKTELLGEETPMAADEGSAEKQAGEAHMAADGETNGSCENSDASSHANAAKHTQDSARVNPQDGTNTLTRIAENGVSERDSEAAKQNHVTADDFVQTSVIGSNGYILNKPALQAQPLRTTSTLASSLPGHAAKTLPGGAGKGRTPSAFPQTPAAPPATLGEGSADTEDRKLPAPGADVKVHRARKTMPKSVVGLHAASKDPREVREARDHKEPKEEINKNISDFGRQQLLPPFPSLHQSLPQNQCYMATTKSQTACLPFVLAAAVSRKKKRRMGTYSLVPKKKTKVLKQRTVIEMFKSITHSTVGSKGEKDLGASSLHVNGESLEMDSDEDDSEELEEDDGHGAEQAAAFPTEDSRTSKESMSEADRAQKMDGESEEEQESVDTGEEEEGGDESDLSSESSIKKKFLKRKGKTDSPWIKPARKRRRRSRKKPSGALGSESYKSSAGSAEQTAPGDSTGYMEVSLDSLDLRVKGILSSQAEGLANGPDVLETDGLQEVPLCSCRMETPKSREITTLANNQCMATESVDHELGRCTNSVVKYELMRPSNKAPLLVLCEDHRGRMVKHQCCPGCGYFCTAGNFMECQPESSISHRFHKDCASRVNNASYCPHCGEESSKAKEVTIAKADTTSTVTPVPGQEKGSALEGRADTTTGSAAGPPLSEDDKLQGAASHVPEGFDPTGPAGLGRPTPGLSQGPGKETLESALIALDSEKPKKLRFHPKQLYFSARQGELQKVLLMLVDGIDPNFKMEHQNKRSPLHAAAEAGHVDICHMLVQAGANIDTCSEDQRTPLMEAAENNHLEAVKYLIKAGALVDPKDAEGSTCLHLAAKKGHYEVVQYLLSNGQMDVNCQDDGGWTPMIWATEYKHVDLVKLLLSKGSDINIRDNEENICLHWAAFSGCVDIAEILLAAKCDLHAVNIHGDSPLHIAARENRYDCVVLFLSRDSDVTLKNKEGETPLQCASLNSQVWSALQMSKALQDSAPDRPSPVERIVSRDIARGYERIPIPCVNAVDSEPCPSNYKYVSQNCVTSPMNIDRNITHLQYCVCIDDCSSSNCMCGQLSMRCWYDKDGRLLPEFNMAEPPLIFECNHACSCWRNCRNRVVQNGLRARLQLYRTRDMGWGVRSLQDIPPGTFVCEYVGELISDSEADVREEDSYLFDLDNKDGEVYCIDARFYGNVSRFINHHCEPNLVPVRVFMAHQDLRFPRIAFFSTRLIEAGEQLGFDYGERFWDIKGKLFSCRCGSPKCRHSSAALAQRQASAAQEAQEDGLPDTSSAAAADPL
Briefly: Inhibition of human GLP using Histone H3 and SAM as substrate at 10 uM by radiometric Hotspot assay.

In test [10] the target is T3, Histone-arginine methyltransferase CARM1 (Homo sapiens) (UniProt Q86X55).
T3 sequence (whole entry): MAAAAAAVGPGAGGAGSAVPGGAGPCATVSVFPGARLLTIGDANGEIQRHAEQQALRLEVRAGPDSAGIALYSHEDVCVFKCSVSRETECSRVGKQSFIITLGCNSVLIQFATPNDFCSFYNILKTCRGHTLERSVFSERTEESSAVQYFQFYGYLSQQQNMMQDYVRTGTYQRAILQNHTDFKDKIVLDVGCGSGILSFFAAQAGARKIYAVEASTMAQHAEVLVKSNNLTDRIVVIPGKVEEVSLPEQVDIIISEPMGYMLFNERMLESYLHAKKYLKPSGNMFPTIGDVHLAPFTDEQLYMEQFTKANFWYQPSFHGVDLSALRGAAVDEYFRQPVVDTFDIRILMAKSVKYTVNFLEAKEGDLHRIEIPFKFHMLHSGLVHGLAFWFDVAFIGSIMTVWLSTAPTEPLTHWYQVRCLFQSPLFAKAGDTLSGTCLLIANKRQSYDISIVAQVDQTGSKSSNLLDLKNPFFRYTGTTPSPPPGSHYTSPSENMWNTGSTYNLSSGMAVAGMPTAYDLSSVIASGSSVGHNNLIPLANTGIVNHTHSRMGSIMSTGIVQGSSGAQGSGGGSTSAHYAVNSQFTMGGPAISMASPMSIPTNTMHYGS
In words: Inhibition of human PRMT4 using histone H3 and SAM as substrate at 10 uM by radiometric Hotspot assay.

Test [11] has as its system MOLM-13. Briefly: Antiproliferative activity against mixed-lineage leukemia rearranged (MLL-r) human MOLM-13 cells assessed as inhibition of cell growth incubated for 7 days by CCK-8 assay. The test is classed as functional, cell-based. To be noted: time 7.0 day.

T1 sequence (P40337 whole entry, looked up): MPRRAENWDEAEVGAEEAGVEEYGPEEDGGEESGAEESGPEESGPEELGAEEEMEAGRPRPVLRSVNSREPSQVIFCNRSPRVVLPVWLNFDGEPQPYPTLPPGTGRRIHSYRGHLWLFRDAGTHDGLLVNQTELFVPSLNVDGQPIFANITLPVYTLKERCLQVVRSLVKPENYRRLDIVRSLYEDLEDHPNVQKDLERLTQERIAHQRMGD
T1 sequence (Q8TEK3 whole entry, looked up): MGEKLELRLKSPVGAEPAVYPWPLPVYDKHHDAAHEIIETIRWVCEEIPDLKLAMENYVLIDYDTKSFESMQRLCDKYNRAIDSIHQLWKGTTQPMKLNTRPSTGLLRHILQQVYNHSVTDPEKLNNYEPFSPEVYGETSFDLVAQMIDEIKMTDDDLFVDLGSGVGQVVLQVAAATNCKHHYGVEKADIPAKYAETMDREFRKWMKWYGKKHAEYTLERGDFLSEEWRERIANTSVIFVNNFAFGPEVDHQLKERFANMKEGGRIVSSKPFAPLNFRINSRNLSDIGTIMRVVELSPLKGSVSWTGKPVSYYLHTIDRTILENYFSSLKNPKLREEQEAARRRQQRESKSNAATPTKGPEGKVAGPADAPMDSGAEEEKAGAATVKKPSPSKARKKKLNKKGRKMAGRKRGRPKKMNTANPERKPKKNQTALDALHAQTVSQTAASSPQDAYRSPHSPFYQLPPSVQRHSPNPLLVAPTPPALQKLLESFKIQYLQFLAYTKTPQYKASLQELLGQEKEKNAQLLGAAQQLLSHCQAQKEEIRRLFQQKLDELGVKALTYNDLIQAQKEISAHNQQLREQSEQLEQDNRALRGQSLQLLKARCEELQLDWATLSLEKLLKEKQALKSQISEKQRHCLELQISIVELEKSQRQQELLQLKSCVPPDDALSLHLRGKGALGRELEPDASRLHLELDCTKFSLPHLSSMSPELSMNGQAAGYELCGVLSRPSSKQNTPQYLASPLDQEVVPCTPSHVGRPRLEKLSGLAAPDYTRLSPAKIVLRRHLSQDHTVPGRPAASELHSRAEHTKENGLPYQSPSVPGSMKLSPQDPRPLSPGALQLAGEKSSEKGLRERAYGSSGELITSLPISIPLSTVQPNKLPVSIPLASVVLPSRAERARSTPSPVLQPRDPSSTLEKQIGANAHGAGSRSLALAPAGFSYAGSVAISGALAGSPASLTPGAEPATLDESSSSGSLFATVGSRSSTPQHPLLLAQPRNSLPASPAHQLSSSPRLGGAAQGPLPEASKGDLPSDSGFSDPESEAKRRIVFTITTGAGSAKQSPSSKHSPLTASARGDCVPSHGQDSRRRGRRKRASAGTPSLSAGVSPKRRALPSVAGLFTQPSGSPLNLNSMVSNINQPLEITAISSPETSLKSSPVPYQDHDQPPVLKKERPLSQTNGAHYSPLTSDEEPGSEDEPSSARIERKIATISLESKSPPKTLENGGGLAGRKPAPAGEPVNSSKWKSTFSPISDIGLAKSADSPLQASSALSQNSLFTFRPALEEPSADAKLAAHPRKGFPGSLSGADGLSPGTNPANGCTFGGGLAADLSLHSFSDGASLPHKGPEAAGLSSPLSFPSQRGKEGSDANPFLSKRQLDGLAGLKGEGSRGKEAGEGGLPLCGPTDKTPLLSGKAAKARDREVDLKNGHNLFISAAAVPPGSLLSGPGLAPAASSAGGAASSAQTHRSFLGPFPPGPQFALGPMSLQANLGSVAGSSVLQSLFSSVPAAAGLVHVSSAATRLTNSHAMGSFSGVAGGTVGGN

As to `Cc1ncsc1-c1ccc([C@H](CC(=O)NCCCCCCNC(=O)COc2nc(N)nc(Nc3cc(S(N)(=O)=O)ccc3N[C@@H](c3cccc4c3OC(F)(F)O4)c3ncccc3Cl)n2)NC(=O)[C@@H]2C[C@@H](O)CN2C(=O)[C@@H](NC(=O)C2(F)CC2)C(C)(C)C)cc1`, the fold change (FC) turned out to be 0.33 in test [1]; 0.29 in test [2]; 0.41 in test [3]; 0.42 in test [4]; 0.03 in test [5]; 0.12 in test [6]. The outcome in test [7] and in test [8] was inactive. The inhibition entry in test [9] and in test [10] was “inactive” each time. Besides, the Activity result in test [11] is “Active; Reduced Potency In Molm-13 Cells Relative To Mv4-11 Cells Observed”.
